Structures are written as SMILES.

The source of these data is publication PMC6934184, “Selective DNA-PKcs inhibition extends the therapeutic index of localized radiotherapy and chemotherapy” (The Journal of Clinical Investigation, 2019).

The experiment concerns the target T1, PIK3CB/PIK3R1 (p110β/p85α) (Homo sapiens, UniProt P42338).
T1 construct: purchased Thermo Fisher Scientific (Life Technologies) SelectScreen
Nature of the experiment: SelectScreen Adapta. Type of experiment: biochemical. Put shortly:
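NU5455 was profiled across the SelectScreen Broad panel of kinase activity and binding assays. Z'LYTE reactions such as CSF1R ran at apparent Km ATP, while the Adapta CAMK1 assay used ATP listed as 10. Values are given as percent.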

T1 sequence (P42338 whole entry): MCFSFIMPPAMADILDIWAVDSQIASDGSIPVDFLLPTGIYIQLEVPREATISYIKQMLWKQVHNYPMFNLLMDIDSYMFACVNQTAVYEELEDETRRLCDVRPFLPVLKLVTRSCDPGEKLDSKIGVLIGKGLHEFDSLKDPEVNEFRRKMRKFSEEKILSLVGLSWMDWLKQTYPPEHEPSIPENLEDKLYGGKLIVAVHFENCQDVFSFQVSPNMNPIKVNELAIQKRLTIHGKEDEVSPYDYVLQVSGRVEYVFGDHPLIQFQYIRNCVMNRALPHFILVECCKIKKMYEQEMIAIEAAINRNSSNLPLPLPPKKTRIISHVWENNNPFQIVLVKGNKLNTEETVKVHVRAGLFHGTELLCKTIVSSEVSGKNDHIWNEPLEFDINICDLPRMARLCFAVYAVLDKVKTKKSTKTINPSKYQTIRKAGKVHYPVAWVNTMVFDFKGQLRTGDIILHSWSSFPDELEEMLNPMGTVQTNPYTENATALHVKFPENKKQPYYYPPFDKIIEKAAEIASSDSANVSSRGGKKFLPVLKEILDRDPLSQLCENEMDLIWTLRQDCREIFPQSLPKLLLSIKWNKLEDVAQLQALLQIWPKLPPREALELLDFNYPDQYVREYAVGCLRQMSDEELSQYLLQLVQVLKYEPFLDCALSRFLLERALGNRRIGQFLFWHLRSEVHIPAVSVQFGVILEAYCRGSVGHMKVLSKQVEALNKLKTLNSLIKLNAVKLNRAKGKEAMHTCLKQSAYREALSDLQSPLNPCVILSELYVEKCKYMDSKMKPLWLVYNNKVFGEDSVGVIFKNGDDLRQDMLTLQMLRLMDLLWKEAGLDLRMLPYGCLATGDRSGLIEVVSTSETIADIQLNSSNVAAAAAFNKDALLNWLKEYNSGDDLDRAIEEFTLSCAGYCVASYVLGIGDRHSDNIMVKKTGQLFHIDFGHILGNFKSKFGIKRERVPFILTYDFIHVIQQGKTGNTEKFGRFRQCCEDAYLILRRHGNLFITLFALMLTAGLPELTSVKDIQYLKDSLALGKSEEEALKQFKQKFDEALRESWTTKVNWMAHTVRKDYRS
T1 sequence (P27986 whole entry partner): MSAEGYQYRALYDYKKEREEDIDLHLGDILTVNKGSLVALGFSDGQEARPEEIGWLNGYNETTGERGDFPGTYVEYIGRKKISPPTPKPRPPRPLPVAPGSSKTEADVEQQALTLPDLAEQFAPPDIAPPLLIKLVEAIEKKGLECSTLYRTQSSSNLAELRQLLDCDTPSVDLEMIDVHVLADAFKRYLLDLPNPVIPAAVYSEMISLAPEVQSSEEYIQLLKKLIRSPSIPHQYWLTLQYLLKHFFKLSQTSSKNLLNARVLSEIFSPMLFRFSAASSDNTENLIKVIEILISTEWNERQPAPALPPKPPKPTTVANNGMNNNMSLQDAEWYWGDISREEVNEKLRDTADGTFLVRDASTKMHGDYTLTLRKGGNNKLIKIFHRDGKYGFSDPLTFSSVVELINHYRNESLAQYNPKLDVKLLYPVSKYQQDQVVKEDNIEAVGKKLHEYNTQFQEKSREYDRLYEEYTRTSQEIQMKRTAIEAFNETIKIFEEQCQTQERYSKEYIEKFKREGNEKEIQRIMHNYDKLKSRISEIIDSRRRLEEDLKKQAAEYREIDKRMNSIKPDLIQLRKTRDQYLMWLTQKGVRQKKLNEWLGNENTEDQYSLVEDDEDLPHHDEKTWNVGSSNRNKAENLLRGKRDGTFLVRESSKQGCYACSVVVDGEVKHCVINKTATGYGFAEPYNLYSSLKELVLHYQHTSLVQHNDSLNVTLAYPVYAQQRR

As to `CN(C(=O)CN1CCOCC1)c1ccc2sc3c(-c4cccc5c(=O)cc(N6CC7CCC(C6)O7)oc45)cccc3c2c1` [NU5455], the inhibition (in general, the relative decrease from the control value, in per cent) at 1 µM is -3.8%.
